Measurements taken from publication PMC8043168, “Tribolium castaneum defensin 1 kills Moraxella catarrhalisin an in vitro infection model but does not harm commensal bacteria” (Virulence, 2021).
≈ marks a conversion by molar mass, not a printed value. Ends that are not written are not given here.

Tested on: M. catarrhalis
Format: cell-based, Moraxella catarrhalis
Details: 12 h
Experimental: Colonies of M. catarrhalis were grown on sheep blood agar plates for 12 h at 37°C and 5% CO2 before transfer to brain heart infusion (BHI) medium (Carl Roth, Karlsruhe, Germany) at an initial concentration of 1.6 × 10^7 cells/ml (OD600 = 0.08) as determined using an Ultraspec 10 cell densitometer (Amersham BioSciences, Little Chalfont, UK). Bacteria were cultivated in a shaking incubator at 37°C until the concentration reached 1.2 × 10^8 cells/ml (OD600 = 0.6) and then diluted to 2 × 10^6 cells/ml (OD600 = 0.011). To establish the optimal concentration ranges for AMP activity, defensin 1 was prepared as a two-fold dilution series from 12.5 µM to 1.56 µM and was added to the bacterial cultures, which were incubated as above for a further 16 h. Untreated cultures were used as controls. The OD600 was measured automatically at 30-min intervals using an Infinite M200 Pro plate reader (Tecan Life Sciences, Männedorf, Switzerland). […] They were cultivated for a further 15 h at 37°C and 5% CO2 in serial dilution before manual counting of the colonies on each plate.
Table S1. Detailed characterization of tested AMPs. M.c. were grown to an Optical Density (OD) 600nm of 0.6 in Brain Heart Infusion (BHI) Medium.
Upon dilution to OD600nm= 0.01, M.c. were incubated with declining amounts of indicated AMPs (25 μM to 0.048 μM at halving intervals) at 37°C with 5% CO2.
OD600nm was measured at 30 min intervals to establish the minimal inhibitory concentration (MIC). pI = isoelectric point, MW = molecular weight in kiloDalton.
MIC AMP name AMP class Organism Amino Acid Sequence pIMWPurity Retention time [min] modification
0.195 µM Cecropin A α-helical Hyalophora cecropia […] 10.75 4.00 91.06 7.30 n-term. amidation
0.39 µM Sarcotoxin IA α-helical Sarcophaga peregrina […] 11.07 4.16 91.37 9.37 n-term. amidation
~ 25µM Stomoxyn α-helical Stomoxys calcitrans […] 11.26 4.40 95.34 10.08 n-term. amidation
~ 25µM Spinigerin linear Pseudacanthotermes spiniger […] 11.07 3.00 96.23 12.45 none
>25µM Apidaecin Ia proline-rich Apis mellifera GNNRPVYIPQPRPPHPRI 11.71 2.11 92.98 16.91 none
>25µM Drosocin proline-rich Drosophila melanogaster GKPRPYSPRPTSHPRPIRV 12.01 2.20 92.86 11.65 none
>25µM Pyrrhocoricin proline-rich Pyrrhocoris apterus […] 10.27 2.34 93.17 11.38 none
>25 µM Metalnikowin-1 proline-rich Palomena prasina […] 9.98 1.84 92.85 13.36 none
>25 µM Metalnikowin-2A proline-rich Palomena prasina […] 9.98 1.84 92.39 10.85 none
>25 µM Metchnikowin-1 proline-rich Drosophila melanogaster […] 10.74 3.03 99.06 11.50 none
>25 µM Metchnikowin-2 proline-rich Drolophila melanogaster […] 11.54 3.04 97.16 11.46 none
12.5 µM Defensin 1 disulfide stabilized Tribolium castaneum […] 9.7 4.83 90.53 18.41 none
~ 25 µM Cecropin-like α-helical Lucilia sericata[…] 10.35 6.66 90.28 12.01 none
0.195 µM Cecropin α-helical Galleria mellonella […] 10.21 4.21 93.61 12.33 n-term. amidation
0.37 µM Cecropin α-helical Lucilia sericata […] 10.56 4.26 94.31 10.83 n-term. amidation
12.5 µM Stomoxyn α-helical Lucilia sericata […] 10.73 4.38 90.37 13.35n-term. amidation n-term.
1.56 µM Cecropin(Sarcotoxin) α-helical Eristalis tenax […] 10.56 4.14 90.80 9.76 none

Compound | MIC (minimal inhibitory concentration)
GGLKKLGKKLEGAGKRVFNAAEKALPVVAGAKALRK [Cecropin A (Aedes aegypti)] | 1.56 µM
KWKIFKKIEKAGRNIRDGIIKAGPAVSVVGEAATIYKTG-NH2 [Cecropin (Galleria mellonella)] | 0.195 µM
DLRFLYPRGKLPVPTPPPFNPKPIYIDMGNRY [Lebocin-1] | > 25 µM
GKPRPYSPRPTSHPRPIRV [Drosocin] | > 25 µM
GNNRPVYIPQPRPPHPRI [Apidaecin Ia] | > 25 µM
GRPNPVNNKPTPHPRL [Formaecin-1] | > 25 µM
FVPYNPPRPGQSKPFPSFPGHGPFNPKIQWPYPLPNPGH [Abaecin] | > 25 µM
KWKLFKKIEKVGQNIRDGIIKAGPAVAVVGQATQIAK-NH2 [Cecropin A (Hyalophora cecropia)] | 0.195 µM

The next lines start with the values.

MIC (minimal inhibitory concentration) | Compound
> 25 µM | HRRQGPIFDTRPSPFNPNQPRPGPIY [Metchnikowin-2]
> 25 µM | VDKPDYRPRPRPPNM [Metalnikowin-1]
12.5 µM | GFRKRFNKLVKKVKHTIKETANVSKDVAIVAGSGVAVGAAMG-NH2 [Stomoxyn (Lucilia sericata)]
> 25 µM | HRHQGPIFDTRPSPFNPNQPRPGPIY [Metchnikowin-1]
~ 25 µM | HVDKKVADKVLLLKQLRIMRLLTRL [Spinigerin]
> 25 µM | VDKPDYRPRPWPRPN [Metalnikowin-2A]

Same assay, conditions: M. catarrhalis grown to OD600 0.6 in BHI, diluted to OD600 0.01; AMP 25 µM to 0.048 µM at halving intervals; 37°C, 5% CO2; OD600 every 30 min

Compound | MIC (minimal inhibitory concentration)
GFLKKIGKKLEGAVQRTRDATIQTIAVAQAAANVAATAKQ [Cecropin(Sarcotoxin)] | 1.56 µM
CC[C@H](C)[C@H](NC(=O)CNC(=O)[C@H](CC(C)C)NC(=O)CNC(=O)[C@H](CCC(N)=O)NC(=O)[C@@H](NC(=O)[C@@H](NC(=O)[C@H](C)NC(=O)[C@H](CC(=O)O)NC(=O)[C@H](CCCNC(=N)N)NC(=O)[C@@H](NC(=O)[C@H](Cc1c[nH]cn1)NC(=O)[C@H](CCC(N)=O)NC(=O)CNC(=O)[C@@H](NC(=O)[C@H](CCCNC(=N)N)NC(=O)[C@H](CCC(=O)O)NC(=O)[C@@H](NC(=O)[C@H](CCCCN)NC(=O)[C@H](CCCCN)NC(=O)CNC(=O)[C@@H](NC(=O)[C@H](CCCCN)NC(=O)[C@H](CCCCN)NC(=O)[C@H](CC(C)C)NC(=O)[C@H](Cc1c[nH]c2ccccc12)NC(=O)CN)[C@@H](C)CC)[C@@H](C)CC)C(C)C)[C@@H](C)O)[C@@H](C)O)[C@@H](C)CC)C(=O)N[C@@H](C)C(=O)N[C@@H](CCC(N)=O)C(=O)N[C@@H](CCC(N)=O)C(=O)N[C@@H](C)C(=O)N[C@@H](C)C(=O)N[C@@H](CC(N)=O)C(=O)N[C@H](C(=O)N[C@@H](C)C(=O)N[C@@H](C)C(=O)N[C@H](C(=O)N[C@@H](C)C(=O)N[C@@H](CCCNC(=N)N)C(N)=O)[C@@H](C)O)C(C)C [Sarcotoxin IA] | 0.39 µM (≈ 1.62 µg/mL)
SIGSAFKKALPVAKKIGKAALPIAKAALP [Ceratotoxin] | > 25 µM
RGFRKHFNKLVKKVKHTISETAHVAKDTAVIAGSGAAVVAAT-NH2 [Stomoxyn (Stomoxys calcitrans)] | ~ 25 µM
VDKGSYLPRPTPPRPIYNRN [Pyrrhocoricin] | > 25 µM
GWLKKIGKKIERVGQHTRDATIQTIGVAQQAANVAATLKG-NH2 [Sarcotoxin 1 C] | 0.37 µM

Tested on: not given
Details: cited from earlier work
From the text: We furthermore tested the effect of defensin 1 and sarcotoxin 1 C on the commensals E. faecalis and E. coli. Selectivity of AMPs may provide an important therapeutic advantage over broad-spectrum antibiotics because AMPs targeting pathogens but not commensals would avoid the common side effects of antibiotic therapy. […] Sarcotoxin 1 C was previously shown to inhibit 90% of clinical multidrug-resistant isolates of Ent ...

Compound | broad-panel off-target profile | cytotoxicity | in vitro therapeutic index
GWLKKIGKKIERVGQHTRDATIQTIGVAQQAANVAATLKG-NH2 [Sarcotoxin 1 C] | inconspicuous | no cytotoxicity | good

Tested on: not given
Details: cited from earlier work
Remark: another data set of the same source

Compound | cardiotoxicity
GWLKKIGKKIERVGQHTRDATIQTIGVAQQAANVAATLKG-NH2 [Sarcotoxin 1 C] | no cytotoxicity or cardiotoxicity

Tested on: mice
Details: dose of 10 mg/kg; cited from earlier work

Compound | acute toxicity in mice
GWLKKIGKKIERVGQHTRDATIQTIGVAQQAANVAATLKG-NH2 [Sarcotoxin 1 C] | no acute toxicity
